Measurements from US6893665B2, “Formulations for treating or preventing mucositis” (Orapharma, Inc., priority 1999, dated 2005).
Where a name gives a salt, the structure may show the parent alone.

Test system: mucositis induced by acute radiation exposure of the cheek pouch
Assay: Hamster cheek pouch model of radiation-induced oral mucositis, topical dosing, clinical scoring 0-5
Format: in vivo
Settings: hamsters, 35 Gy on Day 0, 0.1 mL of 0.1 mg/mL aqueous solution topically three times a day for 22 days; for mucositis scores (clinical scoring 0-5) versus placebo control group: compared with solution without drug
Experimental: Hamsters were randomly assigned to treatment groups with eight (8) animals per group. Each group was treated either with a drug solution or a control, water.
Animals were dosed three times a day for 22 days. The first dose was applied on day —1. Either a solution of the drug or water alone was applied in a volume of 0.1 ml three times per day.
Mucositis was induced by acute radiation exposure of the check pouch. A single dose of radiation (35 Gy/dose) was administered to all animals on Day 0. Prior to irradiation, animals were anesthetized with an intraperiotoneal injection of sodium pentobarbital (80 mg/kg) and the left buccal pouch was everted, fixed and isolated using a lead shield.
Beginning on day 6 and continuing every other day up to day 28, the cheek pouch was photographed. On days that photographs were taken, prior to the first dosing of the day, the animals were anesthetized using an inhalation anesthetic and the left cheek pouch of each animal was rinsed vigorously with sterile water to remove residual food debris or foreign contamination and blotted dry with a gauze sponge. The appearance of the cheek pouch was scored visually by comparison to a validated photographic scale, ranging from 0 for normal to 5 for severe ulceration (clinical scoring). In descriptive terms, this scale is defined as follows: […]
A score of 1-2 represents mild stage of the disease, whereas a score of 3-5 indicates moderate to severe mucositis.

Row | Compound | reduction in the number of animal days with scores of 3 or more, relative to the control group | mucositis scores (clinical scoring 0-5) versus placebo control group
1 | CN(C)[C@@H]1C(O)=C(C(N)=O)C(=O)[C@@]2(O)C(O)=C3C(=O)c4c(O)cccc4[C@@](C)(O)[C@H]3C[C@@H]12 [tetracycline hydrochloride] | more than 75% | Significantly lower scores
2 | meclocycline sulfosalicylate | more than 75% | Significantly lower scores
